The values that follow come from patent publication US20050256174A1, “Raf kinase inhibitors” (priority 1998, published 2005).

Broadly, the melting point is the temperature of the solid-liquid transition. `COC(=O)c1sc(C(C)C)cc1NC(=O)Nc1ccc(C)cc1` [Example 1, 5-Isopropyl-3-(3-p-tolyl-ureido)-thiophene-2-carboxylic acid methyl ester] came in with a melting point of 93 to 95 °C.
`COC(=O)c1cc(C(C)(C)C)sc1NC(=O)Nc1ccc(C)cc1` [Example 26, 5-tert-Butyl-2-(3-p-tolyl-ureido)-thiophene-3-carboxylic acid methyl ester] registered a melting point of 109 to 111 °C.
The molecule `COC(=O)c1cc(C(C)(C)C)sc1NC(=O)Nc1ccccc1` [Example 27, 5-tert-Butyl-2-(3-phenyl-ureido)-thiophene-3-carboxylic acid methyl ester] registered a melting point of 80 to 82 °C.
Under `CCc1nnc(NC(=O)Nc2sc(C(C)(C)C)cc2C(=O)OC)s1` [Example 28, 5-tert-Butyl-2-(3-(5-ethyl-[1,3,4]thiadiazol-2-yl)-ureido)-thiophene-3-carboxylic acid methyl ester] stands 206 to 208 °C.
`COC(=O)c1cc(C(C)C)sc1NC(=O)Nc1ccc(C)cc1` [Example 29, 5-Isopropyl-2-(3-p-tolyl-ureido)-thiophene-3-carboxylic acid methyl ester] gave a melting point of 49 to 51 °C.
The value for `COC(=O)c1cc(C(C)C)sc1NC(=O)Nc1ccc(C)s1` [Example 30, 5-Isopropyl-2-[3-(5-methyl-thiophen-2-yl)-ureido]-thiophene-3-carboxylic acid methyl ester] was 70 to 73 °C.
